Reference: US6630125B2, “18F-labeled choline analogs” (priority 2000, dated 2003)
Read-outs that look alike come from different tables or passages of the source.

Experiments:
[1] = system: normal human subjects; conditions: cited from earlier work
[2] = molecular target: T1, yeast choline kinase (Saccharomyces cerevisiae, UniProt P20485); test: In vitro phosphorylation by yeast choline kinase; assay type: biochemical; conditions: 1 μM choline; for In vitro phosphorylation: 25 mU/ml yeast choline kinase, 23° C., 10 min, n = 5
T1 sequence (P20485 1-582): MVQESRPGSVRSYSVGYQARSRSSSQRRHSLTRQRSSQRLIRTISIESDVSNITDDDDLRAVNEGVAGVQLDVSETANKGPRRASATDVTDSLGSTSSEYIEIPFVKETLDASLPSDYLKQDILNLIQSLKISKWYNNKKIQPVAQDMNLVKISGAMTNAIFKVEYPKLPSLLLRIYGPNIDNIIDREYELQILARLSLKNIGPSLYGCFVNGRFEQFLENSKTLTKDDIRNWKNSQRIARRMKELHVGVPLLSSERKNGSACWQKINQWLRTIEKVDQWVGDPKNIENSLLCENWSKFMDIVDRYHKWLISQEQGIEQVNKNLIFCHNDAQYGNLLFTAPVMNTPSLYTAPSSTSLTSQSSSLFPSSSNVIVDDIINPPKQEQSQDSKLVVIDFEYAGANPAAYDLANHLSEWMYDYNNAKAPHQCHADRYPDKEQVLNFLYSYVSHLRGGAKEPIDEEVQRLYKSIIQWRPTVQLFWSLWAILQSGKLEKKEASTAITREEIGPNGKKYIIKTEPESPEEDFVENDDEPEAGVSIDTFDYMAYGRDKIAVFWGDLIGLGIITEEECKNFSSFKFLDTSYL
Method: The test tube was gently agitated throughout the incubation period. The reaction was stopped by placing the tube in a boiling water bath for 2 min. To serve as controls, some samples were placed directly in the boiling water bath after addition of all substrates. […] The percentage of radioactivity converted to the phosphorylated form was calculated.

[3] = system: PC-3 human prostate cancer cells; test: Accumulation of radiotracers by cultured PC-3 cells; assay type: cell-based
Method: The incubation media utilized for the experiments differed according to the cancer cell type (Table 1). On the day of the study, the medium was refreshed using a volume of 1 ml in each well. Cells were incubated in control conditions or with the addition of metabolic and growth factor receptor inhibitors to test the sensitivity of uptake of the radiotracers to specific inhibitions. […] Following a 30-min incubation period, the radiotracers (e.g., FDG or FCH) were added (˜2 µCi/well) and the cells were incubated for 2 hr. The cells were washed three times with phosphate buffered saline solution, released from the plates by briefly incubating with 0.05% trypsin in DMEM, transferred to test tubes, and counted for F-18 radioactivity in a gamma counter. The amount of radioactivity in the cells was normalized by the dose administered to each well.
The present work studies the structure-activity relationships for purposes of optimization of the molecule for imaging prostate cancer. […] A number of structural analogs of choline were labeled as N-[^18F]fluoromethyl derivatives via the intermediate [^18F]fluorobromomethane (see Table 3). Uptake of the radiotracers was assessed in cultured PC-3 human prostate cancer cells and in a murine PC-3 xenograft model.

[4] = system: mice with PC-3 xenografts
Method: Body weight and tumor volume were measured weekly and tumor volume (mm3) was calculated using the formula S2×L/2, where S and L represent the small and large diameters of the tumor, respectively.
A prescribed duration of time was allowed before procurement of heart, liver, lung, blood, kidney, bone (femur), brain (whole), prostate gland, tumor, bladder, and skeletal muscle. The tissues were weighed, and counted for ^18F in a gamma counter, then dissolved in Solvable (Dupont, Boston Mass.) and counted for ^14C in a liquid scintillation counter. For the bladder, the percentage of the injected dose in the urine was determined. For all other tissues, radiotracer uptake was calculated as: […]

[5] = system: patients with prostate cancer; test: PET imaging in patients with prostate cancer
Method: The distribution of FCH in PET imaging studies was evaluated in 14 patients with prostate cancer, 14 patients with breast cancer, and 5 patients with brain tumors. Imaging was performed using the Advance PET scanner (GE Medical Systems, Milwaukee, Wis.). […] In prostate cancer patients, a transmission scan of the pelvic region was obtained before administration of radiotracer. FCH (2.5-5 mCi) was administered intravenously, and dynamic imaging of the pelvis region was commenced for 20-30 min. During image reconstruction, the emission data in the pelvic region were corrected for photon attenuation using the transmission scan. Immediately following the dynamic scan, a whole-body emission scan was performed without transmission scanning for attenuation correction. The images were reconstructed using an Ordered Subset Expectation Maximum (OS-EM) algorithm. Regions-of-interest were drawn manually on the attenuation corrected images for evaluation of FCH kinetics in tissues. Standardized uptake values of FCH uptake in tissues were calculated using the attenuation-corrected images according to the equation: [formula]
Patient 2: Transmission and FCH emission scans of a person with hormone naive clinical stage T2 prostate cancer were commenced over the lower pelvis.
The same patient was scanned with FDG within the same week (FIG. 8).
Patient 4: A person with a history of clinical stage T3b prostate cancer treated by radical retropubic prostatectomy was diagnosed with metastatic disease by bone scan. FCH-PET imaging was performed before and after initiating androgen deprivation therapy. In the first study, whole-body emission scanning was started 5 min after injection, beginning at the pelvic region in order to image the pelvis and prostatic bed before arrival of urinary radioactivity. […] The patient was rescanned 2 weeks after initiating androgen deprivation therapy.
Patient 5: A person was initially diagnosed five years prior with locally advanced clinical stage T3NOMO prostate cancer and underwent radical prostatectomy followed by external beam radiation to the prostate bed. […] The patient was then treated with Zolex and Casodex.

[6] = system: patients with breast cancer; test: PET imaging in patients with breast cancer; assay type: in vivo, human; conditions: person, metastatic breast cancer
Method: In breast cancer patients, whole-body PET scans were obtained, beginning at 10 min post-administration of FCH. In patients with brain tumors, PET scans of the brain were obtained, beginning at 5 min post-administration of FCH.
Thirteen patients with metastatic breast cancer and one patient with both primary and metastatic breast cancer were each imaged with both FCH-PET and FDG-PET within a period of less than one month.
A person had undergone re-excision of right breast intraductal carcinoma 4 yr prior, then right modified radical mastectomy 3 yr prior followed by tamoxifen chemotherapy. Six months prior to the PET scans, metastatic breast cancer was detected by palpation (right breast sternal mass) and CT (mediastinal and hilar adenopathies, mass in right anterior pelvis). Tamoxifen therapy was stopped. […] Uptake of FCH was also observed in the corresponding tumors: sternal mass (SUV=14.6), mediastinal and hilar adenopathies (SUVs˜8.5), pelvic mass (SUV=6.5). […] Smaller metastases were indicated on the FCH-PET scan in the right chest wall and left lung that were not seen on the FDG-PET scan. Concerning the anterior pelvic tumor, there was observed a homogenous distribution of FDG across the tumor in the FDG-PET scan, whereas the FCH was preferentially distributed on the periphery of the tumor.

[7] = system: BALB/c nude mice; test: Acute toxicity study in mice; assay type: in vivo; conditions: 1 mg/kg body weight
Method: Four unanesthetized BALB/c nude mice were administered 1 mg/kg [^19F]FCH via tail vein injection and monitored for 48 hr. This dose represented an approximately 300,000 fold excess of FCH in comparison to the normal dose that a 70 kg person would receive in a [^18F]FCH study. The mice were euthanized at 48 hr.
Acute toxicity of 1 mg/kg body weight of [^19F]FCH was determined in four untreated BALB/c mice. […] Based on estimates of specific activity of the [^18F]FCH (2 Ci/mmol), the normal dose of FCH in the radiotracer preparation would be a factor of 300,000 times lower than the dose given in this toxicity study.

[8] = system: PC-3 prostate cancer cells; test: Analysis of radiolabeled metabolites in PC-3 prostate cancer cells; assay type: cell-based, human; conditions: PC-3 cells, 2 hr
Method: The primary hydrophilic metabolites of choline in mammals is phosphocholine and betaine. […] The HPLC system used a microprocessor-controlled solvent delivery system and a silica column (Adsorbosphere Silica (10μ), 250×4.6 mm, Alltech, Deerfield, Ill.). The column was kept at room temperature and the flow rate was maintained at 1.5 ml/min. […] Fractions of effluent were collected every 0.5 min and first counted for ^18F-radioactivity in a well-counter for experiments involving [^18F]FCH, then transferred to scintillation vials for counting for ^14C-radioactivity. The column was equilibrated for 6 min with Buffer A before injection. After the injection (<100 μl), Buffer A was delivered for 6 min which eluted betaine (3 min) from the column. […] Re-equilibration of the column with 100% A for 6 min preceded the next injection.
Methanol (1 ml) was added to each well and the cells were lysed by maintaining the temperature at 37° C. for 30 min. The methanol phase was transferred to a glass test tube. Each well was rinsed with an additional 0.5 ml methanol which was added to the original fraction. To each tube, 3 ml chloroform and 1 ml 0.25 M sodium phosphate (pH=4.5) were added to separate lipids from water-soluble molecules. After vigorous mixing of the samples for 1 min, the two phases were separated, and a 0.5 ml aliquot of each phase was counted for ^18F and ^14C radioactivity. The aqueous phase was further analyzed for water-soluble metabolites using the gradient-HPLC method previously described.
Cells incubated in 6-well plates for 2 hr with radiotracers were thoroughly washed to remove all extracellular radioactivity. The cells were lysed in methanol and the methanol solution added to chloroform to solubilize all lipophilic metabolites.

For `C[N+](C)(CCO)CC[18F]` [HARA-1, 2-[^18F]fluoroethyl-dimethyl-2-hydroxyethyl-ammonium, reference compound], the “urinary excretion compared with CH” value [1] is listed as “more prominent urinary excretion of radioactivity”, the “phosphorylation rate, less than for FCH” value [2] is listed as “approximately 30%” and the In vitro phosphorylation [2] is listed as 43.4 ± 3.4 %. The “accumulation by cultured PC-3 cells compared with other tracers” value ([3]; control conditions) was “one fifth of the uptake of FCH”, the “Uptake by PC-3 cancer cells, Control” value ([3]; control, 2 hr incubation) was 0.32 ± 0.05 % dose/2 hr/105 cells plated and the “Uptake by PC-3 cells” value ([3]; inhibitor none) was 0.322 ± 0.054 % dose/2 hr/10^5 cells plated.
For `OC[C@H]1OC(O)[C@H]([18F])[C@@H](O)[C@@H]1O` (some centres unmarked) [FDG, [^18F]fluoro-2-deoxy-glucose, reference compound], the “Uptake in Blood” value ([4]; 45 min) was 2.8 ± 0.009 % dose kg/100 g, the “Uptake in Brain” value ([4]; 45 min) was 8.0 ± 0.7 % dose kg/100 g and the “Uptake in Heart” value ([4]; 45 min) was 48.2 ± 17.9 % dose kg/100 g. For the same compound, the “Uptake in Kidney” value ([4]; 45 min) was 5.3 ± 1.9 % dose kg/100 g, the “Uptake in Liver” value ([4]; 45 min) was 1.5 ± 0.4 % dose kg/100 g and the “Uptake in Lung” value ([4]; 45 min) was 7.4 ± 3.1 % dose kg/100 g. For the same compound, the “Uptake in Prostate” value ([4]; 45 min) was 2.3 ± 0.4 % dose kg/100 g, the “Uptake in Skeletal Muscle” value ([4]; 45 min) was 8.3 ± 0.4 % dose kg/100 g and the “Uptake in Tumor” value ([4]; 45 min) was 8.9 ± 0.7 % dose kg/100 g. For the same compound, the “SUV of osseous lesion (pubic ramus)” value ([5]; Example 11 patient, metastatic prostate cancer) was 6.5, the “SUV values relative to FCH in the same lesions” value ([5]; Patient 3) was “approximately one half” and the “SUV index in osseous lesions” value ([5]; patient #3, FIG. 8) was 4.1. The “SUV of pelvic tumor / pelvic mass” value [6] was 9.5, the “SUV of sternal mass” value [6] was 5.0 and the “SUVs of mediastinal and hilar adenopathies” value [6] was ~5.5.
For `C[N+](C)(CF)CCO.[Cl-]` [[^19F]FCH, Dimethylfluoromethyl-2-hydroxyethylammonium Chloride], the behavioural/movement abnormalities ([7]; 48 hr monitoring) was “Neither were any behavioural/movement abnormalities observed” and the deaths ([7]; tail vein, up to 48 hr, four mice) was “No deaths were observed”.
For `C[N+](C)(C)CCO` [CH, [methyl-^14C]Choline, reference compound], the “Uptake in Blood” value ([4]; 10 min) was 2.1 ± 0.3 % dose kg/100 g, the “Uptake in Brain” value ([4]; 10 min) was 1.4 ± 0.7 % dose kg/100 g and the “Uptake in Heart” value ([4]; 10 min) was 20.3 ± 7.2 % dose kg/100 g. The “Uptake in Kidney” value ([4]; 10 min) was 99.0 ± 12.9 % dose kg/100 g, the “Uptake in Liver” value ([4]; 10 min) was 52.3 ± 11.9 % dose kg/100 g and the “Uptake in Lung” value ([4]; 10 min) was 26.0 ± 9.6 % dose kg/100 g. The “Uptake in Prostate” value ([4]; 10 min) was 9.0 ± 6.8 % dose kg/100 g, the “Uptake in Skeletal Muscle” value ([4]; 10 min) was 4.7 ± 1.7 % dose kg/100 g and the “Uptake in Tumor” value ([4]; 10 min) was 3.2 ± 1.8 % dose kg/100 g. The “Uptake in Blood” value ([4]; 30 min) was 1.5 ± 0.9 % dose kg/100 g, the “Uptake in Brain” value ([4]; 30 min) was 1.0 ± 0.8 % dose kg/100 g and the “Uptake in Heart” value ([4]; 30 min) was 9.7 ± 1.9 % dose kg/100 g. The “Uptake in Kidney” value ([4]; 30 min) was 53.4 ± 7.3 % dose kg/100 g, the “Uptake in Liver” value ([4]; 30 min) was 65.2 ± 19.4 % dose kg/100 g and the “Uptake in Lung” value ([4]; 30 min) was 9.6 ± 6.6 % dose kg/100 g. The “Uptake in Prostate” value ([4]; 30 min) was 5.9 ± 2.5 % dose kg/100 g, the “Uptake in Skeletal Muscle” value ([4]; 30 min) was 2.5 ± 1.5 % dose kg/100 g and the “Uptake in Tumor” value ([4]; 30 min) was 4.8 ± 1.6 % dose kg/100 g. For the same compound, the “Uptake in Blood” value ([4]; 60 min) was 2.2 ± 1.0 % dose kg/100 g, the “Uptake in Brain” value ([4]; 60 min) was 1.7 ± 0.6 % dose kg/100 g and the “Uptake in Heart” value ([4]; 60 min) was 9.1 ± 2.5 % dose kg/100 g. For the same compound, the “Uptake in Kidney” value ([4]; 60 min) was 41.5 ± 15.0 % dose kg/100 g, the “Uptake in Liver” value ([4]; 60 min) was 67.1 ± 49.7 % dose kg/100 g and the “Uptake in Lung” value ([4]; 60 min) was 16.7 ± 3.7 % dose kg/100 g. For the same compound, the “Uptake in Prostate” value ([4]; 60 min) was 5.5 ± 2.6 % dose kg/100 g, the “Uptake in Skeletal Muscle” value ([4]; 60 min) was 2.8 ± 1.7 % dose kg/100 g and the “Uptake in Tumor” value ([4]; 60 min) was 6.7 ± 2.5 % dose kg/100 g. The “injected dose in the urinary bladder” value ([4]; at 30 min) was 1%, the In vitro phosphorylation [2] was 55.9 ± 11.0% and the “oxidation in the cancer cells (betaine / fluorobetaine by HPLC)” value [8] was “negligible”.
